Results taken from PMC12689914, “Identification of a novel dual-targeting peptide inhibitor of SARS-CoV-2 RBD and NRP1 through structure-based virtual screening” (Frontiers in Pharmacology, 2025).
Non-standard residues stand in square brackets, D forms with d. Residues, ends and D or L forms follow the SMILES beside them. No end group written: not given here. *: point of attachment. Biotin = O=C1N[C@H]2[C@H](CS[C@H]2CCCCC(=O)*)N1; βAla = NCCC(=O)O

Assays:
[1] = biological target: T1, NRP1 (Homo sapiens, UniProt O14786); experiment: MST binding affinity to NRP1
T1 construct: purchased Abcam
T1 sequence (O14786 22-923): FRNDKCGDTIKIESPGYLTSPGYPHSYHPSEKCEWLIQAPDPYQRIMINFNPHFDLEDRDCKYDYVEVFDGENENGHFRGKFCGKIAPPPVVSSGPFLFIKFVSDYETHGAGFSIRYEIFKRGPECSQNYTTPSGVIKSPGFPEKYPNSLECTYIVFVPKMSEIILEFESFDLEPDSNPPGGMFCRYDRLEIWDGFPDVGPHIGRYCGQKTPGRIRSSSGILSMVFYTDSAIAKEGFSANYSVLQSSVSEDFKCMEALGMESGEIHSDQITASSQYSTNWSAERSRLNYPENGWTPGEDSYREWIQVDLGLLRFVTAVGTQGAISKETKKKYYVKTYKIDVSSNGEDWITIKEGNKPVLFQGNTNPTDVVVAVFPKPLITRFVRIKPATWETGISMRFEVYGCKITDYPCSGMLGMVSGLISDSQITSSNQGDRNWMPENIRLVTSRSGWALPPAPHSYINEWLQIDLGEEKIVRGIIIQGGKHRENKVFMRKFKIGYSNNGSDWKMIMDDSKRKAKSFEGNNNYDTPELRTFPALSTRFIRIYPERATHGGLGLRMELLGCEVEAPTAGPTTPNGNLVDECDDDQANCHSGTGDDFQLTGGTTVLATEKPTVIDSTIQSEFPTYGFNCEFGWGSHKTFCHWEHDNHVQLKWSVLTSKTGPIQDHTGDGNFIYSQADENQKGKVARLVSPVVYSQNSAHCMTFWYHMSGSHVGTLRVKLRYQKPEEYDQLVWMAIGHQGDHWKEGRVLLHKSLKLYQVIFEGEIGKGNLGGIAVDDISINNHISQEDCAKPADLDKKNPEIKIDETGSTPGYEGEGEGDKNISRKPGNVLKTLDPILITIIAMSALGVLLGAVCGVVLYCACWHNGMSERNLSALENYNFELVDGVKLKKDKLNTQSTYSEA
Procedure: (§1) MST assay was used to analyze the binding ability of peptides 1–5 to RBD and NRP1. Specifically, RBD and NRP1 proteins were labeled using a lysine (Lys) labeling kit, respectively, and their final concentrations were adjusted to 50 nM. The peptides were serially diluted in a 1:1 gradient starting from an initial concentration of 12.5 μM. Subsequently, the labeled proteins were mixed with the diluted peptides in 100 mM potassium phosphate buffer (pH 7.0). After incubation at room temperature for 5 min, the mixture was loaded into standard MST glass capillaries. Detection was performed using a Monolith NT.115 instrument with the MST power set to 50% and the LED power set to 20%. The experiment was independently repeated three times.

[2] = biological target: T2, hERG channel (Homo sapiens, UniProt Q12809); experiment: Predictor hERG fluorescence polarization assay; assay type: binding; settings: for IC50 at 4 h: human, Predictor hERG Membrane (Invitrogen kit)
T2 construct: purchased Invitrogen
T2 sequence (Q12809 whole entry): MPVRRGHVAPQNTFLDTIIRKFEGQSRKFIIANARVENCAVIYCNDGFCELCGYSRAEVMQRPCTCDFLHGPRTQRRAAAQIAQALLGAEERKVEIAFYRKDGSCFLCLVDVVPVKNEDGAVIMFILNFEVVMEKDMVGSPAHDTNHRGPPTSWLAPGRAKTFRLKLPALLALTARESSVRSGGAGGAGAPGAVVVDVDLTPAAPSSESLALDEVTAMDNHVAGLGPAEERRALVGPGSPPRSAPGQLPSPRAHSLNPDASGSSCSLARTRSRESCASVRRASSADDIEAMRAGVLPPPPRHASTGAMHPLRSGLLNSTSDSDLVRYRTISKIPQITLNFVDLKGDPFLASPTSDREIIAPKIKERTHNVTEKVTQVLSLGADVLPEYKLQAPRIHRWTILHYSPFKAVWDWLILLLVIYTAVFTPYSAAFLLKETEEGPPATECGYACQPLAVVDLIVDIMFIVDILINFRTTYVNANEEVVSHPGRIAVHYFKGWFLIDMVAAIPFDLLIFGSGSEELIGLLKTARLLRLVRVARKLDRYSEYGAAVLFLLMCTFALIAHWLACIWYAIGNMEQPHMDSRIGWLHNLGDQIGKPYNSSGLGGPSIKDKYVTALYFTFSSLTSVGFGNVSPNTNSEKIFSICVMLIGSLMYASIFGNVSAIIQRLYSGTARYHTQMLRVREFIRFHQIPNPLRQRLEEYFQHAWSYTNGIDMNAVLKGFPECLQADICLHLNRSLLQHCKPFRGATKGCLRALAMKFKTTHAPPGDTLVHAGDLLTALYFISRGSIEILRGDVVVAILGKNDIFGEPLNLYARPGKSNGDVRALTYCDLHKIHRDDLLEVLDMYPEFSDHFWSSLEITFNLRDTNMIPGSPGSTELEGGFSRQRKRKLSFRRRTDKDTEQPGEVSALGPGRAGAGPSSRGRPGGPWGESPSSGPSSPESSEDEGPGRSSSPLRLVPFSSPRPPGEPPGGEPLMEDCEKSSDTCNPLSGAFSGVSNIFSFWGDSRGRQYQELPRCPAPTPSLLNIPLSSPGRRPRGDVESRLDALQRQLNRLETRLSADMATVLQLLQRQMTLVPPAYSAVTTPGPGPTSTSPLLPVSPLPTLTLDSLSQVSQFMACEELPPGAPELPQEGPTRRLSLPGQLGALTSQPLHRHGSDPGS
Procedure: This study was conducted using the Predictor hERG Fluorescence Polarization Assay Kit purchased from Invitrogen. The kit comprises Predictor hERG Tracer Red, Predictor hERG Membrane, Predictor hERG FP Assay Buffer, and E-4031 as the positive control. The Predictor hERG Tracer Red was diluted to prepare a 4 nM tracer working solution, while the stock solution of E-4031 was diluted to a 120 μM E-4031 working solution. Subsequently, serial dilutions of E-4031 were prepared to serve as the reference compound. Test peptides were subjected to gradient dilution to generate solutions with 6 concentration gradients. For the assay procedure, buffer or compound solution was first added to the assay plate, followed by the addition of membrane and the tracer. After incubating the assay plate at 25 °C for 4 h, fluorescence polarization (FP) values (mp values) were measured using an EnVision microplate reader (PerkinElmer) equipped with a set of polarized filters. The half-maximal inhibitory concentration (IC50) of active compounds was determined using GraphPad Prism software.

[3] = biological target: SARS-CoV-2 RBD; experiment: MST binding affinity to RBD; settings: for Kd: MST, 50 nM labeled protein, 100 mM potassium phosphate buffer pH 7.0
Procedure: as §1

[4] = test system: A549 cells; experiment: MTT cytotoxicity assay; assay type: cell-based, human; settings: 100 μM, 48 h
Procedure: A549 cells ([…], catalog number: PCS-300-010) were purchased from the American Type Culture Collection (ATCC, Manassas, VA, United States). The cells were cultured in Airway Epithelial Cell Basal Medium (ATCC, catalog number: PCS-300-030) supplemented with Bronchial/Tracheal Epithelial Cell Growth Kit (ATCC, catalog number: PCS-300-040) and incubated in a 37 °C incubator with 5% CO2. Then, cells were seeded into 96-well plates at a density of 5 × 10^4 cells per well and incubated overnight at 37 °C with 5% CO2. Subsequently, cells were treated with 100 μM peptides 1–5 for 48 h. After treatment, MTT stock solution (0.5 mg/mL) was added to each well, followed by additional 4-h incubation. Finally, the absorbance signal was measured at 570 nm using a microplate reader.

[5] = test system: live SARS-CoV-2 Omicron XBB.1.5 strain; parameters: species or system K18-hACE2 mice; settings: mouse, in vivo
[6] = test system: SARS-CoV-2 Omicron XBB.1.5 pseudovirus; settings: 3.2 µM
[7] = mice, 1 and 5 mg/kg intranasal

Compound: ELELVVSTAFYRFFRHAR [Peptide-3]
- Kd [1]: 81 nM
- IC50 [2]: > 50 µM

Compound: CC(C)C[C@H](NC(=O)[C@H](CCC(=O)O)NC(=O)[C@H](C)NC(=O)[C@@H](N)CCC(=O)O)C(=O)N[C@H](CC(=O)O)C(=O)N[C@H](C(=O)N[C@@H](CO)C(=O)N[C@@H](CC(=O)O)C(=O)N[C@@H](C)C(=O)N[C@@H](Cc1ccccc1)C(=O)N[C@@H](Cc1ccc(O)cc1)C(=O)N[C@@H](CCCNC(=N)N)C(=O)N[C@@H](Cc1ccccc1)C(=O)N[C@@H](Cc1ccccc1)C(=O)N[C@@H](CCCNC(=N)N)C(=O)N[C@@H](CCCNC(=N)N)C(=O)N[C@@H](C)C(=O)N[C@@H](CCCNC(=N)N)C(=O)O)C(C)C [Peptide-1] (H-EAEL[dD]VSDAFYRFFRRAR-OH; N-terminus and C-terminus assumed)
- Kd [3]: 19 nM
- fold higher affinity for RBD compared with the single-target peptide ([3]; versus PP-4): approximately 4.2 fold
- fold higher affinity for NRP1 compared with the single-target peptide ([1]; versus NTP): ~4.4 fold
- IC50 at 4 h [2]: > 50 µM
- cytotoxicity to A549 cells [4]: no obvious toxicity
- viral load in the lungs of mice vs control [5]: significantly reduced
- inhibition rate against SARS-CoV-2 Omicron XBB.1.5 infection [6]: approximately 80%
- alanine aminotransferase (ALT) level [7]: did not change significantly
- aspartate aminotransferase (AST) level [7]: did not change significantly
- blood urea nitrogen (BUN) level [7]: did not change significantly
- creatinine (CRE) level [7]: did not change significantly

Compound: CSCC[C@H](NC(=O)[C@@H](NC(=O)[C@@H](N)CC(C)C)C(C)C)C(=O)NCC(=O)N[C@@H](CC(C)C)C(=O)N[C@@H](CC(N)=O)C(=O)N[C@H](C(=O)N[C@@H](Cc1c[nH]c2ccccc12)C(=O)N[C@@H](CC(C)C)C(=O)N[C@@H](CCCNC(=N)N)C(=O)N[C@@H](Cc1ccc(O)cc1)C(=O)N[C@@H](CO)C(=O)N[C@@H](CCCCN)C(=O)NCCC(=O)N[C@@H](CCCCNC(=O)CCCC[C@@H]1SC[C@@H]2NC(=O)N[C@@H]21)C(N)=O)C(C)C [PP-4] (H-LVMGLNVWLRYSK[βAla]K(Biotin)-NH2; N-terminus assumed)
- Kd [3]: 79 nM
- NRP1 (Kd) ([1]; MST, 50 nM labeled protein, 100 mM potassium phosphate buffer pH 7.0): no binding affinity

Compound: CC[C@H](C)[C@H](NC(=O)[C@@H](N)CC(N)=O)C(=O)N[C@@H](CCC(=O)O)C(=O)N[C@@H](CC(C)C)C(=O)N[C@H](CC(=O)O)C(=O)N[C@@H](C)C(=O)N[C@@H](CO)C(=O)N[C@@H](CC(=O)O)C(=O)N[C@@H](C)C(=O)N[C@@H](Cc1ccccc1)C(=O)N[C@H](C(=O)N[C@@H](CCCNC(=N)N)C(=O)N[C@@H](Cc1ccccc1)C(=O)N[C@@H](Cc1ccccc1)C(=O)N[C@@H](CCCNC(=N)N)C(=O)N[C@@H](CCC(N)=O)C(=O)N[C@@H](C)C(=O)N[C@@H](CCCNC(=N)N)C(=O)O)C(C)C [Peptide-4] (H-NIEL[dD]ASDAFVRFFRQAR-OH; N-terminus and C-terminus assumed)
- Kd [3]: 69 nM
- IC50 at 4 h [2]: > 50 µM

Compound: CC(C)C[C@H](NC(=O)[C@H](C)NC(=O)[C@@H](NC(=O)[C@@H](N)CO)[C@@H](C)O)C(=O)N[C@H](CC(=O)O)C(=O)N[C@H](C(=O)N[C@@H](CO)C(=O)N[C@@H](CC(=O)O)C(=O)N[C@@H](C)C(=O)N[C@@H](Cc1ccccc1)C(=O)N[C@@H](Cc1ccc(O)cc1)C(=O)N[C@@H](CCCNC(=N)N)C(=O)N[C@@H](Cc1ccccc1)C(=O)N[C@@H](Cc1ccccc1)C(=O)N[C@@H](CCCNC(=N)N)C(=O)N[C@@H](CCCCN)C(=O)N[C@@H](C)C(=O)N[C@@H](CCCNC(=N)N)C(=O)O)C(C)C [Peptide-2] (H-STAL[dD]VSDAFYRFFRKAR-OH; N-terminus and C-terminus assumed)
- Kd [3]: 56 nM
- IC50 at 4 h [2]: > 50 µM

Compound: N=C(N)NCCC[C@@H](N)C(=O)N1CCC[C@@H]1C(=O)N1CCC[C@@H]1C(=O)N[C@H](CCCNC(=N)N)C(=O)N[C@H](CCC(=O)O)C(=O)NCC(=O)N[C@H](CCCNC(=N)N)C(=O)O [NTP, rppregr] (H-[dR][dP][dP][dR][dE]G[dR]-OH)
- Kd [1]: 141 nM

Compound: CC[C@H](C)[C@H](NC(=O)[C@H](CCC(=O)O)NC(=O)[C@H](CS)NC(=O)[C@H](C)N)C(=O)N[C@H](CC(=O)O)C(=O)N[C@H](C(=O)N[C@@H](CO)C(=O)N[C@@H](CC(=O)O)C(=O)N[C@@H](C)C(=O)N[C@@H](Cc1ccccc1)C(=O)N[C@@H](CCCCN)C(=O)N[C@@H](CCCNC(=N)N)C(=O)N[C@@H](Cc1ccccc1)C(=O)N[C@@H](Cc1ccccc1)C(=O)N[C@@H](CCCNC(=N)N)C(=O)N[C@@H](C)C(=O)N[C@@H](C)C(=O)N[C@@H](CCCNC(=N)N)C(=O)O)C(C)C [Peptide-5] (H-ACEI[dD]VSDAFKRFFRAAR-OH; N-terminus and C-terminus assumed)
- Kd [3]: 43 nM
- IC50 at 4 h [2]: > 50 µM
